We go through three molecules from patent US20180273503A1, “NOVEL ANGIOTENSIN CONVERTING ENZYME INHIBITOR” (RIKEN, priority 2015, published 2018).

The structures appear in SMILES notation.

The target of the assay is T1, angiotensin converting enzyme (ACE) (Homo sapiens, UniProt P12821).
T1 construct: purchased Dojindo Laboratories A502
Put plainly: ACE inhibitory activity assay (ACE Kit-WST, A502, Dojindo Laboratories). It is filed as biochemical. The note with it: for IC50: 3HB-GGG substrate, absorbance 450 nm, N.D. = ACE inhibitory activity was not detected in the test, read-out: IC50 concerning ACE activity.

T1 sequence (P12821 30-1306, species assumed): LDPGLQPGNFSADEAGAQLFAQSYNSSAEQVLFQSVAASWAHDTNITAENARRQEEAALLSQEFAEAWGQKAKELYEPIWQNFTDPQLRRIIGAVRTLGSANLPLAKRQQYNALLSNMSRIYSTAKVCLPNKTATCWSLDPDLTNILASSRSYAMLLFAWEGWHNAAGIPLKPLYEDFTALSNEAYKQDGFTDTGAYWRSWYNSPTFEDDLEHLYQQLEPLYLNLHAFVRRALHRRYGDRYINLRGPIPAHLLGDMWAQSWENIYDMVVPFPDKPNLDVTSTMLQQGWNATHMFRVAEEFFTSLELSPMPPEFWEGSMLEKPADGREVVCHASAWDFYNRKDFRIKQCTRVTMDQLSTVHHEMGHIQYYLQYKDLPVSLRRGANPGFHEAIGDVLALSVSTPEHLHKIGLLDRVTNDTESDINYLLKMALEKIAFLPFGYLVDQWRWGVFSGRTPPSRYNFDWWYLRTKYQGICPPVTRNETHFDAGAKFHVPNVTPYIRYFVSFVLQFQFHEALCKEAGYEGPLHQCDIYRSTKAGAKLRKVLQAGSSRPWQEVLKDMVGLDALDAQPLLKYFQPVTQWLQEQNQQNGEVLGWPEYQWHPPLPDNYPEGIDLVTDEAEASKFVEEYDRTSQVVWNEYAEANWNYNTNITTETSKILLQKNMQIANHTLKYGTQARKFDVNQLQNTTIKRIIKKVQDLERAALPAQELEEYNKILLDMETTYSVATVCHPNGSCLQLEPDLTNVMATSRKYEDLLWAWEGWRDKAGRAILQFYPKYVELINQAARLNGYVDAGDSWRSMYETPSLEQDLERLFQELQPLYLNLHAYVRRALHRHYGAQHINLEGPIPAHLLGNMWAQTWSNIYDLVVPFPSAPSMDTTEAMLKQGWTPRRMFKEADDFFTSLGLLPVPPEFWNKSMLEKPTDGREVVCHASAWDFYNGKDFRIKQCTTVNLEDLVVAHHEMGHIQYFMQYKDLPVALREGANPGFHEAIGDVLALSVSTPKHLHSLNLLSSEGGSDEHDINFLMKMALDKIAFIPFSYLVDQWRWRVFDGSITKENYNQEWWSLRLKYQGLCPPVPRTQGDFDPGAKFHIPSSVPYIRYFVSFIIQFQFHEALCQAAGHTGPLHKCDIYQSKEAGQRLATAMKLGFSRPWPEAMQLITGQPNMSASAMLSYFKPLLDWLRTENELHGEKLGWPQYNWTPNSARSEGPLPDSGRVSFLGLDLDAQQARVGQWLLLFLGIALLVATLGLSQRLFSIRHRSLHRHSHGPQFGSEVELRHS
Excerpt: ACE inhibitory activity can be quantitatively evaluated with the use of, for example, a commercially available kit for ACE inhibitory activity assay. […] For example, ACE inhibitory activity of a target sample (e.g., a compound) can be evaluated with the use of a commercially available kit for ACE inhibitory activity assay (ACE Kit-WST, A502, Dojindo Laboratories) in the manner described below. In principle, such kit enzymatically detects 3-hydroxybutyric acid (3HB) cleaved from 3-hydroxybutyryl-glycyl-glycyl-glycine (3HB-GGG) by ACE activity. In accordance with the instructions of the kit, a sample solution containing a test compound at a given concentration is prepared in a reaction vessel, and a control solution is prepared with the addition of the same volume of water instead of the sample solution in another reaction vessel. An enzyme reaction solution is added to each reaction vessel, and the reaction is then allowed to proceed, respectively. As a blank sample, a solution prepared with the addition of the same volume of water instead of the enzyme solution is subjected to the same treatment. The absorbance (450 nm) of the chromogenic indicator used in the enzymatic method generated together with 3HB cleaved from 3HB-GGG by ACE activity is measured. On the basis of the values measured for the sample, the control sample, and the blank sample, ACE inhibitory activity of each sample is determined using the formula shown below. Alternatively, ACE inhibitory activity of the target sample can be evaluated in the manner described below. A substrate peptide that is a mimic of a C-terminal region of angiotensin I (e.g., hippuryl-histidyl-leucine (HHL)) and a sample are mixed with each other in an appropriate buffer solution. ACE is added to the resulting mixture and an enzymatic reaction is performed under appropriate conditions (e.g., 37° C. and pH 8.3) for a given period of time. After the enzymatic reaction is terminated, a product generated from the substrate peptide (e.g., hippuric acid in the case of HHL) is quantitatively measured via analytical means, such as absorbance measurement, immunoanalysis such as ELISA or RIA, or chromatography analysis such as HPLC or LC-MS. A sample-free control and an ACE-free blank are subjected to the same experiment. On the basis of the values measured for the sample, the control sample, and the blank sample, ACE inhibitory activity of each sample is determined using the formula shown below. […]
In principle, such kit enzymatically detects 3-hydroxybutyric acid (3HB) cleaved from 3-hydroxybutyryl-glycyl-glycyl-glycine (3HB-GGG) by ACE activity. […] The absorbance (450 nm) of the chromogenic indicator used in the enzymatic method generated together with 3HB cleaved from 3HB-GGG by ACE activity was measured.

Turning to `N=C(N)NCCC[C@H](NC(=O)C1CSSC1)C(=O)O` [Asparaptine, asparaptine], the IC50 (as a rule, the concentration that gives 50% inhibition) was found to be 113 µM. For the same molecule, the “concentration at which ACE inhibitory activity is exerted” value (from the dose-response data) was “exceeding 1 μM”.

As for `O=C(O)CCC(=O)N1CCC[C@H]1C(=O)O` [N-Succinyl-L-proline, N-succinyl-L-proline], the IC50 was determined as 14.5 ± 5.3 µM.

On to `N[C@@H](CCN[C@@H](CCN1CC[C@H]1C(=O)O)C(=O)O)C(=O)O` [Nicotianamine, nicotianamine], for which the IC50 amounted to 18.7 ± 0.54 µM.
